Measurements taken from patent publication US20240366612A1, “COMPOUNDS AND METHODS FOR MODULATING NUCLEIC ACID SPLICING” (REMIX THERAPEUTICS INC., priority 2021, published 2024).
pIC50: −log10 of the molar value.

Key:
[1] = tested on: HTT mRNA; test: Splicing RT-qPCR assay, HTT canonical (CJ) and alternative (AJ) junction mRNA; assay type: cell-based; settings: Homo sapiens, A673 or K562 cells, 24 hours treatment; for pIC50: decrease in CJ mRNA; for AC50: increase in AJ mRNA
Procedure, shortened: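 Compound-treated A673 or K562 cells (11-point 3-fold dilution, top dose 10 uM final, DMSO ≤0.25%) were incubated for 24 h at 37° C. Lysates underwent one-step RT-qPCR for canonical and alternative-exon junction isoforms. Normalization used PPIA for A673 and GAPDH or GUSB for K562.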

[2] = tested on: MYB CJ mRNA; test: Gene panel canonical junction qPCR assay, MYB; assay type: cell-based; settings: Homo sapiens, larger gene panel, read-out: MYB IC50 (decrease in CJ mRNA levels)
Procedure, shortened: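 A673 or K562 cells treated 24 h with 11-point 3-fold dilutions (top 10 µM, ≤0.25% DMSO) at 37 °C. Canonical exon-junction mRNA measured by probe-based RT-qPCR, normalized to GAPDH, GUSB or PPIA and DMSO (2^−ΔΔCt), converted to percent response over a fixed ΔCt window; IC50 from 4-parameter fit.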

SMILES | pIC50 [1] | pIC50 [2] | AC50 [1] [µM]
Cc1nc(-c2cc3ncn(C4CCNCC4)c(=O)c3s2)cc2cn(C)nc12 [Compound 271] | 5.00 to 6.00 | 6.00 to 7.00 | 1 to 10
Cc1cn2cc(-c3cc4ncn(C5CCNCC5(F)F)c(=O)c4s3)cc(F)c2n1 (stereo not drawn) [Compound 274, 3-(3,3-difluoropiperidin-4-yl)-6-{8-fluoro-2-methylimidazo[1,2-a]pyridin-6-yl}thieno[3,2-d]pyrimidin-4-one] | < 5.00 | < 5.00 | 1 to 10
Cc1cn2cc(-c3cc4ncn(C5CNCCC5=O)c(=O)c4s3)cc(F)c2n1 (stereo not drawn) [Compound 279, 3-(6-{8-fluoro-2-methylimidazo[1,2-a]pyridin-6-yl}-4-oxothieno [3,2-d]pyrimidin-3-yl)piperidin-4-one] | < 5.00 | < 5.00 | > 10
Cc1cn2cc(N3CCc4cc(C5CCNCC5)sc4C3=O)cc(F)c2n1 [Compound 800, 6-[8-fluoro-2-methylimidazo[1,2-a]pyridin-6-yl]-2-(piperidin-4-yl)-4H,5H-thieno[2,3-c]pyridin-7-one] | < 5.00 | < 5.00 | > 10
Cc1cn2cc(-n3ccc4cc(C5CCNCC5)sc4c3=O)cc(F)c2n1 [Compound 801, 6-[8-fluoro-2-methylimidazo[1,2-a]pyridin-6-yl]-2-(piperidin-4-yl)thieno[2,3-c]pyridin-7-one] | < 5.00 | < 5.00 | > 10
Cc1cn2nc(-c3cc4ccn(C5CCNCC5)c(=O)c4s3)cc(C)c2n1 [Compound 806, 2-(2,8-dimethylimidazo[1,2-b]pyridazin-6-yl)-6-(piperidin-4-yl)thieno[2,3-c]pyridin-7(6H)-one] | 6.00 to 7.00 | 6.00 to 7.00 | 0.1 to 1
Cc1cn2cc(-c3cc4ccn(C5CCN(C)CC5)c(=O)c4s3)cc(F)c2n1 [Compound 808, 2-(8-fluoro-2-methylimidazo[1,2-a]pyridin-6-yl)-6-(1-methylpiperidin-4-yl)thieno[2,3-c]pyridin-7(6H)-one] | 6.00 to 7.00 | 6.00 to 7.00 | 1 to 10
Cc1cn2nc(-c3cc4ccn(C5CCN(C)CC5)c(=O)c4s3)cc(C)c2n1 [Compound 809] | 5.00 to 6.00 | 5.00 to 6.00 | 1 to 10
Cc1cn2nc(-c3nc4cnn(C5CCNCC5)c(=O)c4s3)cc(C)c2n1 [Compound 810] | 6.00 to 7.00 | 6.00 to 7.00 | 0.1 to 1
Cc1nc(-c2nc3cnn(C4CCNCC4)c(=O)c3s2)cc2cn(C)nc12 [Compound 811] | 5.00 to 6.00 | 5.00 to 6.00 | 1 to 10
Cc1cn2cc(-c3nc4cnn(C5CCNCC5)c(=O)c4s3)nc(C)c2n1 [Compound 812, 2-(2,8-dimethylimidazo[1,2-a]pyrazin-6-yl)-6-(piperidin-4-yl)thiazolo[4,5-d]pyridazin-7(6H)-one] | < 5.00 | < 5.00 | > 10

Now from value to compound, other results behind:

pIC50 [1] | pIC50 [2] | SMILES | AC50 [1] [µM]
6.00 to 7.00 | 6.00 to 7.00 | Cc1cn2cc(-c3cc4ncn(C5CCNC5)c(=O)c4s3)cc(F)c2n1 (stereo not drawn) [Compound 270, 6-{8-fluoro-2-methylimidazo[1,2-a]pyridin-6-yl}-3-(pyrrolidin-3-yl)thieno[3,2-d]pyrimidin-4-one] | 0.1 to 1
6.00 to 7.00 | 6.00 to 7.00 | Cc1cn2cc(-c3cc4ncn(C5CCCNCC5)c(=O)c4s3)cc(F)c2n1 (stereo not drawn) [Compound 275, 3-(azepan-4-yl)-6-{8-fluoro-2-methylimidazo[1,2-a]pyridin-6-yl}thieno[3,2-d]pyrimidin-4-one] | 0.1 to 1
6.00 to 7.00 | 6.00 to 7.00 | Cc1cn2cc(-c3cc4ncn(C5=CCNCC5)c(=O)c4s3)cc(F)c2n1 [Compound 276, 6-{8-fluoro-2-methylimidazo[1,2-a]pyridin-6-yl}-3-(1,2,3,6-tetrahydropyridin-4-yl)thieno[3,2-d]pyrimidin-4-one] | 0.1 to 1
6.00 to 7.00 | 6.00 to 7.00 | Cc1cc(-c2cc3cnn(C4CCNCC4)c(=O)c3s2)cc2cn(C)nc12 [Compound 802, 2-(2,7-dimethyl-2H-indazol-5-yl)-6-(piperidin-4-yl)thieno[2,3-d]pyridazin-7(6H)-one] | 0.1 to 1
6.00 to 7.00 | 6.00 to 7.00 | Cc1cn2cc(-c3cc4ccn(C5CCNCC5)c(=O)c4s3)cc(F)c2n1 [Compound 804, 2-(8-fluoro-2-methylimidazo[1,2-a]pyridin-6-yl)-6-(piperidin-4-yl)thieno[2,3-c]pyridin-7(6H)-one] | 0.1 to 1
6.00 to 7.00 | 6.00 to 7.00 | Cc1cc(-c2cc3ccn(C4CCNCC4)c(=O)c3s2)cc2cn(C)nc12 [Compound 805, 2-(2,7-dimethyl-2H-indazol-5-yl)-6-(piperidin-4-yl)thieno[2,3-c]pyridin-7(6H)-one] | 0.1 to 1
